Measured values: US11739070B2, “C5A receptor modulators” (IDORSIA PHARMACEUTICALS LTD, priority 2018, dated 2023)

What follows are compounds tested against T1, C5AR1 (Homo sapiens, UniProt P21730) (assay: hC5a DISCO IC50 assay (PathHunter beta-arrestin, antagonist mode)). Settings: CHO-K1 C5AR1 beta-arrestin cell line; antagonist vs 1-10 nM C5a agonist; geometric mean values; read-out: C5aR IC50.
T1 construct: host or cells: CHO-K1
T1 sequence (P21730 1-350): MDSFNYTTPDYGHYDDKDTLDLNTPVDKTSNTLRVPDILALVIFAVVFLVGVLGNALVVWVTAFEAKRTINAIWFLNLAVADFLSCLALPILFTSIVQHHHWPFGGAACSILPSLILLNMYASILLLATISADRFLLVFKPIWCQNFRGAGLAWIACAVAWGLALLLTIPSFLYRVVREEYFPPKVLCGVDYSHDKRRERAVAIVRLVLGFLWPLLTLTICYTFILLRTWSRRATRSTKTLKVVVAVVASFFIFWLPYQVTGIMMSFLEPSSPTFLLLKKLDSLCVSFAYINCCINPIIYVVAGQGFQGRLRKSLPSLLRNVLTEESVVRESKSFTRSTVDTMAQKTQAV
Assay type: cell-based
How it was run: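 Antagonist added first, then 1-10 nM C5a agonist; cells incubated 1.5 h at 37 °C. Beta-arrestin signal developed with PathHunter detection reagent, 45 min at RT. IC50 in nmol/l from serial antagonist dilutions, reported as geometric mean of several measurements.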

Row | Compound | IC50 [nM]
1 | COc1cccnc1N1CCC(n2c(=O)n(Cc3ccccc3C(F)(F)F)c3c(OC)cccc32)CC1 [Example 233, 4-Methoxy-1-(3′-methoxy-3,4,5,6-tetrahydro-2H-[1,2′]bipyridinyl-4-yl)-3-(2-trifluoromethyl-benzyl)-1,3-dihydro-benzoimidazol-2-one] | 195
2 | COc1nccc(C)c1N1CCC(n2c(=O)n(Cc3ccccc3C(F)(F)F)c3c(OC)cccc32)CC1 [Example 234, 4-Methoxy-1-(2′-methoxy-4′-methyl-3,4,5,6-tetrahydro-2H-[1,3′]bipyridinyl-4-yl)-3-(2-trifluoromethyl-benzyl)-1,3-dihydro-benzoimidazol-2-one] | 17
3 | COc1cccc2c1n(Cc1ccccc1C(F)(F)F)c(=O)n2C1CCN(c2c(C)ccnc2F)CC1 [Example 235, 1-(2′-Fluoro-4′-methyl-3,4,5,6-tetrahydro-2H-[1,3′]bipyridinyl-4-yl)-4-methoxy-3-(2-trifluoromethyl-benzyl)-1,3-dihydro-benzoimidazol-2-one] | 28
4 | COc1cccc2c1n(Cc1ccccc1C(F)(F)F)c(=O)n2C1CCN(c2ncccc2F)CC1 [Example 236, 1-(3′-Fluoro-3,4,5,6-tetrahydro-2H-[1,2′]bipyridinyl-4-yl)-4-methoxy-3-(2-trifluoromethyl-benzyl)-1,3-dihydro-benzoimidazol-2-one] | 171
5 | COc1cccc2c1n(Cc1ccccc1C(F)(F)F)c(=O)n2C1CCN(c2c(C)ccnc2C)CC1 [Example 237, 1-(2′,4′-Dimethyl-3,4,5,6-tetrahydro-2H-[1,3′]bipyridinyl-4-yl)-4-methoxy-3-(2-trifluoromethyl-benzyl)-1,3-dihydro-benzoimidazol-2-one] | 90
6 | COc1cccc2c1n(Cc1ccccc1C(F)(F)F)c(=O)n2C1CCN(c2ccccc2OCCO)CC1 [Example 238, 1-{1-[2-(2-Hydroxy-ethoxy)-phenyl]-piperidin-4-yl}-4-methoxy-3-(2-trifluoromethyl-benzyl)-1,3-dihydro-benzoimidazol-2-one] | 133
7 | COc1cccc2c1n(Cc1ccccc1C(F)(F)F)c(=O)n2C1CCN(c2ccccc2OC2CCOCC2)CC1 [Example 239, 4-Methoxy-1-{1-[2-(tetrahydro-pyran-4-yloxy)-phenyl]-piperidin-4-yl}-3-(2-trifluoromethyl-benzyl)-1,3-dihydro-benzoimidazol-2-one] | 82
8 | COc1cccc2c1n(Cc1ccccc1C(F)(F)F)c(=O)n2C1CCN(c2ccccc2OCC2CC2)CC1 [Example 240, 1-[1-(2-Cyclopropylmethoxy-phenyl)-piperidin-4-yl]-4-methoxy-3-(2-trifluoromethyl-benzyl)-1,3-dihydro-benzoimidazol-2-one] | 46
9 | COc1cccc2c1n(Cc1ccccc1C(F)(F)F)c(=O)n2C1CCN(c2ccccc2OC2CCC2)CC1 [Example 241, 1-[1-(2-Cyclobutoxy-phenyl)-piperidin-4-yl]-4-methoxy-3-(2-trifluoromethyl-benzyl)-1,3-dihydro-benzoimidazol-2-one] | 36
10 | COc1cccc2c1n(Cc1ccccc1C(F)(F)F)c(=O)n2C1CCN(c2ccccc2OC2COC2)CC1 [Example 242, 4-Methoxy-1-{1-[2-(oxetan-3-yloxy)-phenyl]-piperidin-4-yl}-3-(2-trifluoromethyl-benzyl)-1,3-dihydro-benzoimidazol-2-one] | 74
11 | CCCCOc1ccccc1N1CCC(n2c(=O)n(Cc3ccccc3C(F)(F)F)c3c(OC)cccc32)CC1 [Example 243, 1-[1-(2-Butoxy-phenyl)-piperidin-4-yl]-4-methoxy-3-(2-trifluoromethyl-benzyl)-1,3-dihydro-benzoimidazol-2-one] | 61
12 | COc1cccc2c1n(Cc1ccccc1C(F)(F)F)c(=O)n2C1CCN(c2c(F)ccnc2C)CC1 [Example 244, 1-(4′-Fluoro-2′-methyl-3,4,5,6-tetrahydro-2H-[1,3′]bipyridinyl-4-yl)-4-methoxy-3-(2-trifluoromethyl-benzyl)-1,3-dihydro-benzoimidazol-2-one] | 227
13 | Cc1cccc(F)c1N1CCC(n2c(=O)n(Cc3ccccc3C(F)(F)F)c3c(C)cccc32)CC1 [Example 245, 1-[1-(2-Fluoro-6-methyl-phenyl)-piperidin-4-yl]-4-methyl-3-(2-trifluoromethyl-benzyl)-1,3-dihydro-benzoimidazol-2-one] | 111
14 | COc1cccc2c1n(Cc1ccccc1C(F)(F)F)c(=O)n2C1CCN(c2c(C)ccnc2C#N)CC1 [Example 246, 4-[4-Methoxy-2-oxo-3-(2-trifluoromethyl-benzyl)-2,3-dihydro-benzoimidazol-1-yl]-4′-methyl-3,4,5,6-tetrahydro-2H-[1,3′]bipyridinyl-2′-carbonitrile] | 39
15 | COc1ccnc(C)c1N1CCC(n2c(=O)n(Cc3ccccc3C(F)(F)F)c3c(OC)cccc32)CC1 [Example 247, 4-Methoxy-1-(4′-methoxy-2′-methyl-3,4,5,6-tetrahydro-2H-[1,3′]bipyridinyl-4-yl)-3-(2-trifluoromethyl-benzyl)-1,3-dihydro-benzoimidazol-2-one] | 563
16 | COc1ccnc(OC)c1N1CCC(n2c(=O)n(Cc3ccccc3C(F)(F)F)c3c(OC)cccc32)CC1 [Example 248, 1-(2′,4′-Dimethoxy-3,4,5,6-tetrahydro-2H-[1,3′]bipyridinyl-4-yl)-4-methoxy-3-(2-trifluoromethyl-benzyl)-1,3-dihydro-benzoimidazol-2-one] | 182
17 | COc1ncnc(C)c1N1CCC(n2c(=O)n(Cc3ccccc3C(F)(F)F)c3c(OC)cccc32)CC1 [Example 249, 4-Methoxy-1-[1-(4-methoxy-6-methyl-pyrimidin-5-yl)-piperidin-4-yl]-3-(2-trifluoromethyl-benzyl)-1,3-dihydro-benzoimidazol-2-one] | 273
18 | COc1ncnc(OC)c1N1CCC(n2c(=O)n(Cc3ccccc3C(F)(F)F)c3c(OC)cccc32)CC1 [Example 250, 1-[1-(4,6-Dimethoxy-pyrimidin-5-yl)-piperidin-4-yl]-4-methoxy-3-(2-trifluoromethyl-benzyl)-1,3-dihydro-benzoimidazol-2-one] | 853
